Experimental data from patent US9227955B2, “Compound having angiogenesis inhibitory activity, method for preparing same, and pharmaceutical composition comprising same” (Boryung Pharmaceutical Co., Ltd., priority 2011, dated 2016).
“Also recorded” adds a separate entry of the source. Marks after values point to notes of the source that are not given here.

Tests used:
HUVECs [1] = assay: VEGF-induced tube formation of HUVECs (capillary structure formation assay); format: cell-based, human; settings: for suppression of VEGF-induced tube formation, in words: Tables 9 and 10
Protocol: After HUVECs were seeded at a density of 3×10^5 cells/well into Matrigel-coated 48-well plates, HUVECs were with 10 ng/ml VEGF for 4 hrs. The HUVECs where tubes were formed were monitored and photographed under a microscope equipped with a camera to count cells.
HUVECs were also treated with Compound 250 (Example 26) at various concentrations given in Table 10, The HUVECs where tubes were formed were monitored and photographed under a microscope equipped with a camera, like Compound 103.

[2] = tested on: Aortic rings excised from C57BL/6 mice; assay: Ex vivo microvessel sprouting assay, mouse aortic rings; settings: mouse aortic rings, 0.1, 0.5, 1 μM, 10 ng/ml VEGF 7 days, FIG. 5
Description: Sprouts from margins of the aortic rings were photographed under a microscope equipped with a camera.

[3] = Cell viability MTS assay (cytotoxicity); format: cell-based; settings: human; A-431 cells, 48 hrs incubation; read-out: IC50, MTS assay for cytotoxicity against A-431
Protocol: A-431 ([…], human, ATCC CRL-1555™) cells grown in DMEM (Dulbeco's Modified Eagle's Medium, Gibco #11885) were seeded at a density of 1×10^4 cells/well into 96-well plates and incubated at 37° C. for 18 hrs under the supply of 5% CO2 until the cells stably adhered to the bottom. […] After incubation for 48 hrs in the presence of the test compound, the cells were assayed for viability.
The cells in each well was added with 21 μl of a mixture of 20:1 (v/v) of an MTS solution [(3-(4,5-dimethylthiazol-2-yl)-5-(3-carboxymethoxyphenyl)-2-(4-sulfophenyl)-2H-tetrazolium, Promega, Cat#65421; 2 mg/ml] and a PMS solution [Phenazine methosulfate, Sigma #P9625; 1 mg/ml], and incubated for 2 hrs, followed by measuring absorbance at 490 nm on a microplate reader (Molecular device, spectraMax M2). Relative to the control (media), viability by drug concentration was determined from the measurements of formazan, and the results are given in Table 2, below.

[4] = tested on: AKT (serine/threonine protein kinase B); assay: VEGF-induced AKT activation in HUVECs (Western blot); format: cell-based, human; settings: HUVECs pretreated 1 hr, VEGF 10 ng/ml 30 min, FIG. 9
Protocol: (§1) An examination was made to see the effect of compounds of Chemical Formula I, prepared in the Examples above, on VEGF-induced activation of AKT (serine/threonine protein kinase B)/ERK (Extracellular signal-regulated kinases) and eNOS (endothelial nitric oxide synthase) in HUVECs, as follows (endothelial nitric oxide synthase).
(§2) After 3 min of centrifugation at 4000 rpm to collect the cells, the cell pellet was washed once with PBS (phosphate buffered saline). The cell pellet suspended in a lysis buffer (50 mM HEPES pH 7.0, 250 mM NaCl, 5 mM EDTA, 0.1% Nonidet P-40, 1 mM phenylmethylsulfonyl fluoride and 0.5 mM Na orthovanadate) containing 5 μl/mL of leupeptin and aprotinin, each and the reaction was performed at 4° C. for 20 min. After the cell debris was removed by microcentrifugation, the supernatant was swiftly cooled.
(§3) Protein quantification was carried out using a Bio-Rad protein assay reagent. […]
(§4) For immunoblotting, the membrane was incubated overnight at 4° C. in a blocking solution (5% skim milk), and reacted with a primary antibody for 4 hrs. After 4 washes with Tween 20/Tris-buffered saline (TTBS), the membrane was reacted with a 1:1000 (v/v) dilution of a horseradish peroxidase-conjugated secondary antibody at room temperature for 1 hr, washed three times with TTBS, and visualized by a chemical luminescence method (Amersham Life Science).

HUVECs [5] = assay: Wound healing assay, VEGF-induced migration of HUVECs; format: cell-based, human; settings: for suppression of VEGF-induced migration of HUVECs, in words: wound healing assay, text on Tables 5 and 6
Protocol: Using a sterile, disposable cell scraper (BD Falcon, Bedford, USA), a monolayer of HUVECs was scraped, and the cells were gently washed with PBS. […] After 24 hours, the cell migration were monitored through the scraped monolayer of the cell and photographed under a microscope equipped with a camera (Canon Powershot640).
Also, Compound 250 (Example 26) was applied at various concentrations shown in Table 6 in the same manner as Compound 103, followed by monitoring and photographing the migration of the cells under the microscope. For comparison, the cells were not treated (control) or were treated with 10 ng/mL VEGF, alone.

[6] = tested on: eNOS (endothelial nitric oxide synthase); assay: VEGF-induced eNOS activation in HUVECs (Western blot); format: cell-based, human; settings: HUVECs pretreated 1 hr, VEGF 10 ng/ml 1 hr, FIG. 9
Protocol: as §1, §2, §3, §4

[7] = tested on: HUVECs (human umbelical vein endothelial cells); assay: Transwell assay, VEGF-induced cell migration in HUVECs; format: cell-based; settings: for suppression of VEGF-induced migration of HUVECs, in words: transwell assay, text on Tables 3 and 4
Protocol: To examine the inhibitory effect of the compounds obtained in the Examples on VEGF (Vascular endothelial growth factor)-induced cell migration in HUVECs (human umbelical vein endothelial cells), a transwell assay was performed as follows.
HUVECs, provided from ATCC (American Type Culture Collection), were incubated in EGM-2 (Endothelial growth Medium-2 Medium) including 10% FBS, penicillin (100 unit/ml) and 100 μg/ml streptomycin sulfate plus various growth factors at 37° C. in an atmosphere of 5% CO2. After the change of the medium with growth factor-free EBM-2 (Endothelial Basal Medium-2 Medium), the cells were subjected to transwell assay.
After for 24 hours, the cells were fixed for 1 min with ethanol and were stained with a dye. Cell migration was evaluated by counting cells which moved through the pores.
In addition, cells were treated with Compound No. 250 (Example 26) at various concentrations given in Table 3, and assayed for cell migration, as conducted with Compounds 103, 110, 218, 273, 275, 276, 290, 312, 428, 442, and 509. The results were compared with those obtained after non-treatment (no treat) or treatment with 10 ng/mL VEGF.
Results were expressed as average numbers (n=3) of HUVECs which moved cross the membrane. Test results are summarized in Table 3 for compounds 103, 110, 218, 273, 275, 276, 290, 312, 428, 442, and 509, and in Table 4 for compound 250.

[8] = tested on: ERK (Extracellular signal-regulated kinases); assay: VEGF-induced ERK activation in HUVECs (Western blot); format: cell-based, human; settings: HUVECs pretreated 1 hr, VEGF 10 ng/ml 10 min, FIG. 9
Protocol: as §1, §2, §3, §4

HUVECs [9] = assay: BrdU incorporation assay, VEGF-induced cell proliferation in HUVECs; format: cell-based, human; settings: for inhibition of VEGF-induced proliferation in HUVECs, in words: BrdU assay, text on Tables 7 and 8
Protocol: A BrdU incorporation assay was carried out to examine whether the proliferation of HUVECs through VEGF-induced DNA synthesis is suppressed by BRN-103. HUVECs grown as in Experimental Example 2 were seeded at a density of 1×10^4 cells/well into 96-well plates. […] Thereafter, DNA synthesis in the cells was fluorescently measured using a BrdU incorporation assay kit (Roche).
Likewise, the cells were treated with various concentrations of Compound 250 (Example 26) given in Table 8, and then with VEGF, as the same manner of that of Compound 103. Intracellular DNA was also quantified, as the same manner of that of Compound 103. For comparison, the cells were not treated (control), or were treated with 10 ng/mL VEGF, alone.

[10] = tested on: aortic rings excised from Spague-Dawley rats; assay: Ex vivo microvessel sprouting assay, rat aortic rings; settings: 10 nM, 50 nM, 100 nM, FIG. 6
Protocol: Likewise, after the aortic rings excised from six-week-old Spague-Dawley rats were treated with various concentrations (10 nM, 50 nM, 100 nM) of Compound 250 (Example 26) and then with VEGF, Sprouts from margins of the aortic rings were photographed under a microscope equipped with a camera, like Compound 103.

[11] = 1 μM, 10 ng/ml VEGF 24 hrs, n=3

## O=C(Nc1cccc(Cl)c1)c1cccnc1NC1CCN(Cc2ccccc2)CC1 [Compound 103, 2-(1-Benzylpiperidin-4-ylamino)-N-(3-chlorophenyl)nicotinamide]
HUVECs [1]
  suppression of VEGF-induced tube formation, in words: more efficient in the inhibition of tube formation than sunitinib; also recorded: VEGF-induced tube formation was also suppressed
HUVECs [1]; VEGF + 0.1 μM, 4 hrs
  Number of tubes/field: 90** tubes/Field
HUVECs [1]; VEGF + 0.5 μM, 4 hrs
  Number of tubes/field: 80*** tubes/Field
HUVECs [1]; VEGF + 1 μM, 4 hrs
  Number of tubes/field: 60*** tubes/Field
[2]
  VEGF-induced aortic sprouting: inhibited VEGF-induced aortic sprouting
[3]
  IC50 at 48 h: 40.6 µM
[4]
  expression of p-AKT: decreased the expression of p-AKT
HUVECs [5]; VEGF + 0.1 μM, 24 hrs
  Wound closure: 200 µm
HUVECs [5]; VEGF + 0.5 μM, 24 hrs
  Wound closure: 180 µm
HUVECs [5]; VEGF + 1 μM, 24 hrs
  Wound closure: 155 µm
HUVECs [5]
  suppression of VEGF-induced migration of HUVECs, in words: higher efficiency than sunitinib
[6]
  p-eNOS level: downregualted
[7]; 0.1 μM, 10 ng/ml VEGF 24 hrs, n=3
  No. of migration cells/field: 16*** cells/field
[7]; 0.5 μM, 10 ng/ml VEGF 24 hrs, n=3
  No. of migration cells/field: 12*** cells/field
[7]; [11]
  No. of migration cells/field: 8*** cells/field
[7]
  suppression of VEGF-induced migration of HUVECs, in words: more suppressive than the anticancer agent sunitinib
[8]
  expression of p-ERK: did not suppress the expression of p-ERK
HUVECs [9]; 1 μM, without VEGF
  BrdU incorporation: 0.7 OD 450 nm
HUVECs [9]
  inhibition of VEGF-induced proliferation in HUVECs, in words: inhibited VEGF-induced proliferation in HUVECs in a dose-dependent manner
HUVECs [9]; VEGF + 0.1 μM, 24 hrs
  BrdU incorporation: 1.0*** OD 450 nm
HUVECs [9]; VEGF + 0.5 μM, 24 hrs
  BrdU incorporation: 0.8*** OD 450 nm
HUVECs [9]; VEGF + 1 μM, 24 hrs
  BrdU incorporation: 0.7*** OD 450 nm

## CC(c1ncnc(Cl)c1F)N1CCC(Nc2ncccc2C(=O)Nc2cccc(Cl)c2)CC1 (centres unmarked) [Compound 250, 2-{1-[1-(6-chloro-5-fluoropyrimidin-4-yl)ethyl]piperidin-4-ylamino}-N-(3-chlorophenyl)nicotinamide]
HUVECs [1]; 100 nM, without VEGF
  Number of tubes/field: 27 ± 2 tubes/field
HUVECs [1]
  suppression of VEGF-induced tube formation, in words: high suppressive effect on tube formation
HUVECs [1]; VEGF + 25 nM
  Number of tubes/field: 45 ± 6 tubes/field
HUVECs [1]; VEGF + 50 nM
  Number of tubes/field: 35 ± 2 tubes/field
HUVECs [1]; VEGF + 100 nM
  Number of tubes/field: 28 ± 4 tubes/field
[3]
  IC50 at 48 h: 26.1 µM
HUVECs [5]; 100 nM, without VEGF
  Wound closure: 125 µm
HUVECs [5]; VEGF + 25 nM
  Wound closure: 210 µm
HUVECs [5]; VEGF + 50 nM
  Wound closure: 165 µm
HUVECs [5]; VEGF + 100 nM
  Wound closure: 120 µm
HUVECs [5]
  suppression of VEGF-induced migration of HUVECs, in words: highly suppresses VEGF-induced migration of HUVECs
[10]
  VEGF-induced aortic sprouting: inhibited VEGF-induced aortic sprouting
[7]; 100 nM, without VEGF
  No. of migration cells/field: 4.5 ± 1.11 cells/field
[7]; VEGF + 25 nM
  No. of migration cells/field: 33 ± 2.54 cells/field
[7]; VEGF + 50 nM
  No. of migration cells/field: 20.3 ± 1.08 cells/field
[7]; VEGF + 100 nM
  No. of migration cells/field: 12.5 ± 2.5 cells/field
[7]
  suppression of VEGF-induced migration of HUVECs, in words: remarkable suppressive effect
HUVECs [9]; 100 nM, without VEGF
  BrdU incorporation: 0.7 ± 0.05 OD 450 nM
HUVECs [9]
  inhibition of VEGF-induced proliferation in HUVECs, in words: inhibited VEGF-induced proliferation in HUVECs
HUVECs [9]; VEGF + 25 nM
  BrdU incorporation: 0.79 ± 0.02 OD 450 nM
HUVECs [9]; VEGF + 50 nM
  BrdU incorporation: 0.75 ± 0.03 OD 450 nM
HUVECs [9]; VEGF + 100 nM
  BrdU incorporation: 0.7 ± 0.05 OD 450 nM

## O=C(Nc1cccc(Cl)c1)c1cc(F)c(Cl)nc1NC1CCN(CCO)CC1 [Compound 312, 6-chloro-N-(3-chlorophenyl)-5-fluoro-2-[1-(2-hydroxyethyl)piperidin-4-ylamino]nicotinamide]
[3]
  IC50 at 48 h: 20.7 µM
[7]; 50 μM, 10 ng/ml VEGF 24 hrs, n=3
  No. of migration cells/field: 14*** cells/field

## Cc1cnc(NC(=O)c2cccnc2NC2CCN(Cc3ccccc3)CC2)s1 [Compound 428, 2-(1-Benzylpiperidin-4-ylamino)-N-(5-methylthiazol-2-yl)nicotinamide]
[3]
  IC50 at 48 h: 125 µM
[7]; 25 μM, 10 ng/ml VEGF 24 hrs, n=3
  No. of migration cells/field: 14.5*** cells/field

## CCN(CC)CCNC(=O)c1c(C)[nH]c(/C=C2\C(=O)Nc3ccc(F)cc32)c1C [Sunitinib, sunitinib, reference compound]
HUVECs [1]; VEGF + 1 μM, 4 hrs
  Number of tubes/field: 100*** tubes/Field
[3]
  IC50 at 48 h: 22 µM
HUVECs [5]; VEGF + 1 μM, 24 hrs
  Wound closure: 210 µm
[7]; [11]
  No. of migration cells/field: 16.5*** cells/field
HUVECs [9]; VEGF + 1 μM, 24 hrs
  BrdU incorporation: 0.84*** OD 450 nm
